We go through 18 compounds from ChEMBL document CHEMBL5154758, “Structure-Activity Relationship Study of Indolin-5-yl-cyclopropanamine Derivatives as Selective Lysine Specific Demethylase 1 (LSD1) Inhibitors” (J Med Chem, 2022).

Assay [1] deals with T1, Amine oxidase [flavin-containing] A (Homo sapiens, UniProt P21397).
T1 sequence (P21397 whole entry): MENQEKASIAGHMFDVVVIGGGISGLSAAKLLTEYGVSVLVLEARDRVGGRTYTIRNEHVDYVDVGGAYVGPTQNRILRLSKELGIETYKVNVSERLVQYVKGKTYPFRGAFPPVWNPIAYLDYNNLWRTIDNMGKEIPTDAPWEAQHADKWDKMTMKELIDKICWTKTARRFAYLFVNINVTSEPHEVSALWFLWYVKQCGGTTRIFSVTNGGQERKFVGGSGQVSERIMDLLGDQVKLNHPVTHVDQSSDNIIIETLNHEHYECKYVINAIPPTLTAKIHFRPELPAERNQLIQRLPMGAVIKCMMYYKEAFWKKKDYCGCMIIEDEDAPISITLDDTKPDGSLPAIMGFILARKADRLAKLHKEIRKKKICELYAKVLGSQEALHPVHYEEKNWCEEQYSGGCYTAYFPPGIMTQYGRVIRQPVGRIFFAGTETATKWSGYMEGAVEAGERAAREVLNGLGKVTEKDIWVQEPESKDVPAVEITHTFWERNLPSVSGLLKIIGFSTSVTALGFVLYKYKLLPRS
Description: biochemical.
Description: Inhibition of human recombinant MAO-A expressed in baculovirus infected BTI insect cells using luminogenic MAO substrate incubated for 1 hr by luciferin-based luminescence assay

For assay [2], the target named is T2, Amine oxidase [flavin-containing] B (Homo sapiens, UniProt P27338).
T2 sequence (P27338 whole entry): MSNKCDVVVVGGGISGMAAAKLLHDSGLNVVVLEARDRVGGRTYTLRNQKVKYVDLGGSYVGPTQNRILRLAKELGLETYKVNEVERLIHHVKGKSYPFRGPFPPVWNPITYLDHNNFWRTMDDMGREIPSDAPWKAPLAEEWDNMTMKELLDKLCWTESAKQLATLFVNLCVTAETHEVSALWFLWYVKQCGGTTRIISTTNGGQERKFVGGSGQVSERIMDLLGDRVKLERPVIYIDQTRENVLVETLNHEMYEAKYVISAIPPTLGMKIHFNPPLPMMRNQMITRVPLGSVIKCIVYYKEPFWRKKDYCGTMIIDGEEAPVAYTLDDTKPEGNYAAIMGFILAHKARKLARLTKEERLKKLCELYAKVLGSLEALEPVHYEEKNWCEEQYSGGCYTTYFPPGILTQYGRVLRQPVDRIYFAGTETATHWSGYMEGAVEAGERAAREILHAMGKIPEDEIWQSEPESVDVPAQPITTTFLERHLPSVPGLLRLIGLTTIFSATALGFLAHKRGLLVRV
The experiment in a line: biochemical.
Description: Inhibition of human recombinant MAO-B expressed in baculovirus infected BTI insect cells using luminogenic MAO substrate incubated for 1 hr by luciferin-based luminescence assay

In another assay the test system is MV4-11. Description: Antiproliferative activity against human MV4-11 cells assessed as inhibition of cell growth incubated for 240 hrs by MTS assay. Type of assay: functional, cell-based. To be noted: MV4-11, 240 h. Background: Formazan colour is commonly taken as a measure of viable cells.
In the next assay the test system is RPMI-8226. Description: Antiproliferative activity against human RPMI-8226 cells assessed as inhibition of cell growth incubated for 240 hrs by MTS assay. Type of assay: functional, cell-based. To be noted: RPMI-8226, 240 h.

The term IC50 denotes the concentration needed to halve the response being measured. `N[C@H]1CC[C@H](CNC2CC2c2ccc3c(c2)CCN3S(=O)(=O)c2ccccc2)CC1` (stereo partly drawn): the IC50 in assay [1] came out at 96.3 µM.
Consider `O=C(N[C@@H](CCCCNC1CC1c1ccccc1)C(=O)NCc1ccc(Cl)cc1)c1ccc(-c2ccccc2)cc1` (stereo partly drawn), for which the half-maximal inhibitory concentration (IC50) in assay [2] and in assay [1] was above 100 µM each time.
In the case of `CCCC(=O)N1CCc2cc(C3CC3NCC3CCNCC3)ccc21` (stereo not drawn), the 50% inhibitory concentration (IC50) is above 100 µM in assay [2], 18.8 µM in the assay on MV4-11 and above 100 µM in assay [1].
`O=S(=O)(c1ccccc1)N1CCc2cc(C3CC3NCC3CCN(Cc4ccccc4)CC3)ccc21` (trans isomer): the IC50 in assay [2] was above 100 µM.
For `CS(=O)(=O)N1CCc2cc(C3CC3NCC3CCNCC3)ccc21` (stereo not drawn), the results for the IC50 (in assay [2]; in the assay with MV4-11; in assay [1]) were above 100 µM, 2.39 µM and above 100 µM, respectively.
For the compound `O=S(=O)(c1ccccc1)N1CCc2cc(C3CC3NCCC3CCNCC3)ccc21` (trans isomer), the IC50 in assay [2] was above 100 µM; in the assay with MV4-11 it was 1.21 µM; with RPMI-8226, above 20 µM; in assay [1], above 100 µM.
In the case of `O=S(=O)(C1CCCCC1)N1CCc2cc(C3CC3NCC3CCNCC3)ccc21` (stereo not drawn), the concentration for half-maximal inhibition (IC50) in assay [2] and in assay [1] was above 100 µM throughout.
On to `CCC(=O)N1CCc2cc(C3CC3NCC3CCNCC3)ccc21` (trans isomer), for which the 50% inhibitory concentration (IC50) was above 100 µM in assay [2], 7.66 µM in the assay with MV4-11 and above 100 µM in assay [1].
As for `CC(C)(C)C(=O)N1CCc2cc(C3CC3NCC3CCNCC3)ccc21` (trans isomer), the IC50 was 1.23 µM with MV4-11, above 20 µM in the assay with RPMI-8226 and above 100 µM in assay [1].
Take `CCS(=O)(=O)N1CCc2cc(C3CC3NCC3CCNCC3)ccc21` (trans isomer): the IC50 is above 100 µM in assay [2], 2.52 µM with MV4-11 and above 100 µM in assay [1].
With `O=S(=O)(c1ccccc1)N1CCc2cc(C3CC3NC3CC4(CCNCC4)C3)ccc21` (trans isomer), the IC50 in assay [2] and in assay [1] was above 100 µM throughout.
Regarding `CCCCC(=O)N1CCc2cc(C3CC3NCC3CCNCC3)ccc21` (stereo not drawn), the half-inhibitory concentration (IC50) in assay [2] and in assay [1] was above 100 µM in each case.
Take `O=C(Cc1ccccc1)N1CCc2cc(C3CC3NCC3CCNCC3)ccc21` (trans isomer): the IC50 in assay [2] and in assay [1] was above 100 µM in each case.
In turn, `O=S(=O)(N1CCc2cc(C3CC3NCC3CCNCC3)ccc21)C(F)(F)F` (trans isomer) gave an IC50 in assay [1] of 8640 µM.
As to `CC1(CNC2CC2c2ccc3c(c2)CCN3S(=O)(=O)c2ccccc2)CCNCC1` (trans isomer), the figures for the half-inhibitory concentration (IC50) in assay [2] and in assay [1] were above 100 µM and 100 µM, respectively.
The compound `COc1cccc(S(=O)(=O)N2CCc3cc(C4CC4NCC4CCNCC4)ccc32)c1` (trans isomer) gave an IC50 in assay [2] above 100 µM.
In turn, `O=S(=O)(c1ccc(-c2ccccc2)cc1)N1CCc2cc(C3CC3NCC3CCNCC3)ccc21` (trans isomer) gave an IC50 in assay [1] above 100 µM.
On to `O=C(c1ccccc1)N1CCc2cc(C3CC3NCC3CCNCC3)ccc21` (trans isomer), for which the IC50 in the assay with MV4-11 is 4.14 µM; in assay [1], above 100 µM.
